This passage reports IC50, Emax and EC50 results from patent US9951088B2, “D2 receptor modulators and methods of use thereof in the treatment of diseases and disorders” (SUNOVION PHARMACEUTICALS INC., priority 2012, dated 2018).

In experiment [1] the target is T1, long isoform of human D2 receptor (Homo sapiens, UniProt P14416). Put plainly: Arrestin Antagonist Assay (DRD2L PathHunter CHO-K1 cells, vs EC80 dopamine). The note with it: for Emax: CHO-K1, read-out: β-arrestin (antagonist mode) Imax.
T1 sequence (P14416 whole entry, canonical isoform): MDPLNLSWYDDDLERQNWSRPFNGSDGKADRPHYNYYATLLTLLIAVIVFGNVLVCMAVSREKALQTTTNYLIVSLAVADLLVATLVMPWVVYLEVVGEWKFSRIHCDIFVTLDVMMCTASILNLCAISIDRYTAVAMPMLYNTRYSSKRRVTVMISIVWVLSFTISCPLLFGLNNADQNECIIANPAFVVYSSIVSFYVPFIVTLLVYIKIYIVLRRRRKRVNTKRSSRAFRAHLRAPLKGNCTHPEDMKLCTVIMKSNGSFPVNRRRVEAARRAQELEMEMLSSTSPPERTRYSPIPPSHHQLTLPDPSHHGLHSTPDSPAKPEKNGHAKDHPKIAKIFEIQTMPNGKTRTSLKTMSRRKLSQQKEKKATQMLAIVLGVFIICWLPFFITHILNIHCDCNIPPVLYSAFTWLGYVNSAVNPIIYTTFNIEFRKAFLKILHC
Protocol: Cell Lines: Activities of the compounds were assessed using a Chinese Hamster Ovary (CHO—K1) cell line that recombinantly expressed the long isoform of human D2 receptor (DRD2L PathHunter cells). The D2 receptor DNA sequence was modified to contain a “ProLink” at its C-terminus which allowed complementation with an “enzyme acceptor” (EA)-tagged β-arrestin protein. The recruitment of the O-arrestin by the D2 receptor led to complementation of the ProLink and EA and formation of active β-galactosidase which generated a D2-specific signal that was measured.
Arrestin Antagonist Assay: One day prior to testing, a vial of high density stock of DRD2L PathHunter cells was thawed, and 1×10^7 cells diluted into 40 mL of growth media (Ham's F12/10% HI FBS/1% PSG). 20 μL cells per well were seeded directly into assay plates, and the plates were allowed to rest for 1 h at RT before incubating in a plate incubator overnight.
The plate was incubated for 30 min at 37° C. 15 μL PathHunter detection reagent was added to each well of the assay plate, which was then covered and incubated for 1 h at RT. The plate was read on an Envision reader using the Luminescence protocol, and the data were exported for analysis.
The IC50 values (concentration producing a half-maximal inhibitory response) were determined by non-linear regression analysis of the concentration-response curves.
Experiment [2] concerns the target T1, long isoform of human D2 receptor. Put plainly: cAMP HTRF Agonist Assay (DRD2L PathHunter CHO-K1 cells, forskolin-stimulated). The conditions noted are these: for Emax: CHO-K1, read-out: cAMP (agonist mode) Emax.
The target is the same in experiment [3]. Put plainly: Arrestin Agonist Assay (DRD2L PathHunter CHO-K1 cells, β-arrestin recruitment). The note with it: for Emax: CHO-K1, read-out: β-arrestin (agonist mode) Emax. For orientation: Activated receptors often draw arrestin, which recruitment assays turn into a signal.

For orientation: IC50 means the midpoint of a concentration-inhibition curve. Higher therefore signals weaker potency. As usually defined, the EC50 is the concentration that produces a half-maximal response. High values mean weaker potency, low ones greater potency. In the case of `O=C1CCc2ccc(OCCCCN3CCc4c(Cl)cccc4C3)nc2N1` [Compound 76, 7-(4-(5-chloro-3,4-dihydroisoquinolin-2(1H)-yl)butoxy)-3,4-dihydro-1,8-naphthyridin-2(1H)-one], in experiment [1], the half-inhibitory concentration (IC50) is above 10 µM and the Emax is below 10%. Also, in experiment [2], the IC50 was below 0.01 µM and the Emax is above 75%. Besides, in experiment [3], the EC50 is below 0.01 µM and the Emax is above 75%.
On to `O=C1CCc2ccc(OCCCCN3CCc4c(cccc4C(F)(F)F)C3)nc2N1` [Compound 77, 7-(4-(5-(trifluoromethyl)-3,4-dihydroisoquinolin-2(1H)-yl)butoxy)-3,4-dihydro-1,8-naphthyridin-2(1H)-one], for which the IC50 in experiment [1] was above 10 µM; in experiment [2] it was 0.01 to 0.1 µM. Further, the Emax in experiment [1] is below 10%; in experiment [2], 50 to 75%; in experiment [3] it was 50 to 75%. This compound also returned an EC50 in experiment [3] of 0.1 to 1 µM.
On to `N#Cc1cccc2c1CCN(CCCCOc1ccc3c(n1)NC(=O)CC3)C2` [Compound 78, 2-(4-((7-oxo-5,6,7,8-tetrahydro-1,8-naphthyridin-2-yl)oxy)butyl)-1,2,3,4-tetrahydroisoquinoline-5-carbonitrile], for which the IC50 in experiment [1] was above 10 µM; in experiment [2], 0.01 to 0.1 µM. The Emax in experiment [1] is below 10%; in experiment [2], 50 to 75%; in experiment [3] it was 50 to 75%. Moreover, in experiment [3], the EC50 lay within 0.01 to 0.1 µM.
Consider `O=C1CCc2ccc(OCCCCN3CCc4cccc(C(F)(F)F)c4C3)nc2N1` [Compound 79, 7-(4-(8-(trifluoromethyl)-3,4-dihydroisoquinolin-2(1H)-yl)butoxy)-3,4-dihydro-1,8-naphthyridin-2(1H)-one], for which, in experiment [1], the IC50 fell in the range of 0.1 to 1 µM and the Emax was above 75%. For the same compound, in experiment [2], the IC50 was above 10 µM and the Emax is below 10%. In experiment [3], the EC50 was above 10 µM and the Emax is below 10%.
For the compound `N#Cc1cccc2c1CN(CCCCOc1ccc3c(n1)NC(=O)CC3)CC2` [Compound 80, 2-(4-((7-oxo-5,6,7,8-tetrahydro-1,8-naphthyridin-2-yl)oxy)butyl)-1,2,3,4-tetrahydroisoquinoline-8-carbonitrile], the IC50 in experiment [1] is 0.1 to 1 µM; in experiment [2], above 10 µM. Besides, the results for the Emax in experiment [1], in experiment [2] and in experiment [3] were above 75%, below 10% and below 10%, respectively. The EC50 in experiment [3] is above 10 µM.
In the case of `Cc1ccc2c(c1)CN(CCCCOc1ccc3c(n1)NC(=O)CC3)CC2` [Compound 81, 7-(4-(7-methyl-3,4-dihydroisoquinolin-2(1H)-yl)butoxy)-3,4-dihydro-1,8-naphthyridin-2(1H)-one], the IC50 in experiment [1] was 0.01 to 0.1 µM; in experiment [2], above 10 µM. Further, the Emax in experiment [1] is above 75%; in experiment [2], below 10%; in experiment [3], below 10%. The compound further displayed an EC50 in experiment [3] above 10 µM.
As to `O=C1CCc2ccc(OCCCCN3CCc4nn(-c5ccccc5)cc4C3)nc2N1` [Compound 82, 7-(4-(2-phenyl-6,7-dihydro-2H-pyrazolo[4,3-c]pyridin-5(4H)-yl)butoxy)-3,4-dihydro-1,8-naphthyridin-2(1H)-one], in experiment [1], the IC50 fell in the range of 0.1 to 1 µM and the Emax was above 75%. Further, in experiment [2], the IC50 is above 10 µM and the Emax is below 10%. Further, in experiment [3], the half-maximal effective concentration (EC50) was above 10 µM and the Emax is below 10%.
As for `O=C1NCCc2ccc(OCCCCN3CCc4ccccc4C3)nc2N1` [Compound 83, 8-(4-(3,4-dihydroisoquinolin-2(1H)-yl)butoxy)-4,5-dihydro-1H-pyrido[2,3-d][1,3]diazepin-2(3H)-one], in experiment [1], the IC50 lay in the range of 0.01 to 0.1 µM and the Emax was above 75%. Besides, in experiment [2], the IC50 is above 10 µM and the Emax was below 10%. For the same compound, in experiment [3], the EC50 was above 10 µM and the Emax is below 10%.
For `O=C1NCCc2ccc(OCCCCN3CCc4cc(F)ccc4C3)nc2N1` [Compound 84, 8-(4-(6-fluoro-3,4-dihydroisoquinolin-2(1H)-yl)butoxy)-4,5-dihydro-1H-pyrido[2,3-d][1,3]diazepin-2(3H)-one], the results for the IC50 in experiment [1] and in experiment [2] were 0.01 to 0.1 µM and above 10 µM, respectively. For the same compound, the Emax in experiment [1] is above 75%; in experiment [2], below 10%; in experiment [3], below 10%. In addition, the EC50 in experiment [3] is above 10 µM.
On to `O=C1NCCc2ccc(OCCCCN3CCc4cc(Cl)ccc4C3)nc2N1` [Compound 85, 8-(4-(6-chloro-3,4-dihydroisoquinolin-2(1H)-yl)butoxy)-4,5-dihydro-1H-pyrido[2,3-d][1,3]diazepin-2(3H)-one], for which, in experiment [1], the half-inhibitory concentration (IC50) was 0.01 to 0.1 µM and the Emax is above 75%. Moreover, in experiment [2], the IC50 was above 10 µM and the Emax is below 10%. Besides, in experiment [3], the half-maximal effective concentration (EC50) is above 10 µM and the Emax is below 10%.
For `O=C1NCCc2ccc(OCCCCN3CCc4sccc4C3)nc2N1` [Compound 86, 8-(4-(6,7-dihydrothieno[3,2-c]pyridin-5(4H)-yl)butoxy)-4,5-dihydro-1H-pyrido[2,3-d][1,3]diazepin-2(3H)-one], in experiment [1], the IC50 was in the range of 0.01 to 0.1 µM and the Emax was above 75%. For the same compound, in experiment [2], the IC50 was above 10 µM and the Emax is below 10%. In experiment [3], the EC50 is above 10 µM and the Emax is below 10%.
Turning to `O=C1NCCc2ccc(OCCCCN3CCc4ccsc4C3)nc2N1` [Compound 87], in experiment [1], the IC50 lay in the range of 0.01 to 0.1 µM and the Emax was above 75%. Besides, in experiment [2], the IC50 is above 10 µM and the Emax is below 10%. In addition, in experiment [3], the EC50 was above 10 µM and the Emax is below 10%.
As to `O=C1NCCc2ccc(OCCCCN3CCc4c(Cl)cccc4C3)nc2N1` [Compound 88, 8-(4-(5-chloro-3,4-dihydroisoquinolin-2(1H)-yl)butoxy)-4,5-dihydro-1H-pyrido[2,3-d][1,3]diazepin-2(3H)-one], the IC50 in experiment [1] was 0.1 to 1 µM; in experiment [2] it was below 0.01 µM. Also, the Emax in experiment [1] fell in the range of 25 to 50%; in experiment [2], 50 to 75%; in experiment [3], 25 to 50%. The EC50 in experiment [3] lay within 0.01 to 0.1 µM.
Regarding `O=C1NCCc2ccc(OCCCCN3CCc4nn(-c5ccccc5)cc4C3)nc2N1` [Compound 89, 8-(4-(2-phenyl-6,7-dihydro-2H-pyrazolo[4,3-c]pyridin-5(4H)-yl)butoxy)-4,5-dihydro-1H-pyrido[2,3-d][1,3]diazepin-2(3H)-one], the IC50 in experiment [1] and in experiment [2] was 0.01 to 0.1 µM each time. Further, the Emax in experiment [1] was in the range of 50 to 75%; in experiment [2] it was 25 to 50%; in experiment [3], 25 to 50%. Also, in experiment [3], the EC50 fell in the range of 0.01 to 0.1 µM.
As for `O=C1NCCc2ccc(OCCCCN3CCc4nn(-c5ccccn5)cc4C3)nc2N1` [Compound 90, 8-(4-(2-(pyridin-2-yl)-6,7-dihydro-2H-pyrazolo[4,3-c]pyridin-5(4H)-yl)butoxy)-4,5-dihydro-1H-pyrido[2,3-d][1,3]diazepin-2(3H)-one], the IC50 was above 10 µM in experiment [1] and below 0.01 µM in experiment [2]. Moreover, the Emax in experiment [1] was below 10%; in experiment [2], above 75%; in experiment [3], above 75%. The compound further came in with an EC50 in experiment [3] of 0.01 to 0.1 µM.
Take `O=C1CCc2ccc(OCCCCN3CCc4ccccc4C3)cc2N1` [Compound 91, 7-(4-(3,4-dihydroisoquinolin-2(1H)-yl)butoxy)-3,4-dihydroquinolin-2(1H)-one]: in experiment [1], the IC50 was in the range of 0.01 to 0.1 µM and the Emax is above 75%. Besides, in experiment [2], the IC50 is below 0.01 µM and the Emax was in the range of 25 to 50%. In experiment [3], the EC50 is below 0.01 µM and the Emax lay in the range of 10 to 25%.
Take `c1ccc2c(N3CCN(CCCCOc4ccc5cn[nH]c5c4)CC3)cccc2c1` [Compound 92, 6-(4-(4-(naphthalen-1-yl)piperazin-1-yl)butoxy)-1H-indazole]: in experiment [1], the IC50 was in the range of 0.01 to 0.1 µM and the Emax fell in the range of 50 to 75%. Also, in experiment [2], the half-maximal inhibitory concentration (IC50) is 0.01 to 0.1 µM and the Emax was 25 to 50%. In experiment [3], the EC50 is below 0.01 µM and the Emax lay in the range of 25 to 50%.
For `CCOc1ccccc1N1CCN(CCCCOc2ccc3cn[nH]c3c2)CC1` [Compound 93, 6-(4-(4-(2-ethoxyphenyl)piperazin-1-yl)butoxy)-1H-indazole], in experiment [1], the IC50 lay in the range of 0.01 to 0.1 µM and the Emax is above 75%. In experiment [2], the IC50 is below 0.01 µM and the Emax was in the range of 25 to 50%. Moreover, in experiment [3], the EC50 was below 0.01 µM and the Emax was in the range of 10 to 25%.
Regarding `c1ccc(N2CCN(CCCCOc3ccc4cn[nH]c4c3)CC2)nc1` [Compound 94, 6-(4-(4-(pyridin-2-yl)piperazin-1-yl)butoxy)-1H-indazole], in experiment [1], the IC50 was above 10 µM and the Emax is below 10%. Besides, in experiment [2], the IC50 is below 0.01 µM and the Emax is above 75%. Besides, in experiment [3], the 50% effective concentration (EC50) is below 0.01 µM and the Emax was above 75%.
With `Cc1cccc(N2CCN(CCCCOc3ccc4cn[nH]c4c3)CC2)c1C` [Compound 95, 6-(4-(4-(2,3-dimethylphenyl)piperazin-1-yl)butoxy)-1H-indazole], in experiment [1], the IC50 is 0.01 to 0.1 µM and the Emax is above 75%. Also, in experiment [2], the IC50 lay in the range of 0.01 to 0.1 µM and the Emax is 10 to 25%. In addition, in experiment [3], the EC50 is above 10 µM and the Emax was below 10%.
Consider `Cc1ccccc1N1CCN(CCCCOc2ccc3cn[nH]c3c2)CC1` [Compound 96, 6-(4-(4-(o-tolyl)piperazin-1-yl)butoxy)-1H-indazole], for which, in experiment [1], the IC50 lay in the range of 0.1 to 1 µM and the Emax was above 75%. In experiment [2], the IC50 fell in the range of 0.01 to 0.1 µM and the Emax was 25 to 50%. Moreover, in experiment [3], the EC50 is 0.01 to 0.1 µM and the Emax is 10 to 25%.
On to `Clc1ccccc1N1CCN(CCCCOc2ccc3cn[nH]c3c2)CC1` [Compound 97, 6-(4-(4-(2-chlorophenyl)piperazin-1-yl)butoxy)-1H-indazole], for which the IC50 in experiment [1] is 0.01 to 0.1 µM; in experiment [2], below 0.01 µM. Further, the values for the Emax in experiment [1], in experiment [2] and in experiment [3] were 50 to 75%, 50 to 75% and 10 to 25%, respectively. The EC50 in experiment [3] is below 0.01 µM.
